Data published in patent US11090364B2, “Conjugates of a pharmaceutical agent and a moiety capable of binding to a glucose sensing protein” (SANOFI, priority 2016, dated 2021).

test system: HepG2 cells; assay: HepG2 assay: 14C 2-deoxy-D-glucose transport into HepG2 cells; type: cell-based; conditions: Homo sapiens, test compound 100 μM
Protocol: For measurement of ^14C 2-deoxy-D-glucose transport into HepG2 cells, cells were seeded in collagen treated 96-well plates (Cytostar-T Plates Perkin Elmer, 40.000 cells/200 μ/well) in medium complete (MEM W/GLUT-I, EARLES (Gibco #41090) /NEAA/PS/10% FCS) and grown for 48 hours. After starvation for 2 hours with MEM W/GLUT-I, EARLES (Gibco #41090)/NEAA/no serum 100 μl/well and washing twice with 200 μL KRB buffer, cells were stimulated in a dose dependent manner by adding 20 μL of test compound dilution 0-750 μM (7.5 times higher concentration than final) or 20 μL of 188 μM Cytochalasin B solution as negative control, to 80 μL KRB buffer and incubated for 30 minutes. After compound stimulation, the transport of ^14C 2-deoxy-D-glucose was started by adding of 50 μL ^14C 2-deoxy-D-glucose solution (250 μM 2-deoxy-D-glucose cold and 15 μM ^14C 2-deoxy-D-glucose 0.13 μCi/well) for 20 minutes. Transport was stopped by adding 50 μL/well 40 μM Cytochalasin B solution. Plates were measured in a 96-well Wallac Microbeta device. The cpm (counts per minute) values were used to determine the % inhibition values for the test compounds within each experiment, which then are averaged over the number of experiments performed.

Row | Compound | inhibition at 100 µM
1 | CN1CCN(C(=O)[C@H]2OC(O)[C@H](O)[C@@H](O)[C@@H]2O)CC1 (stereo partly drawn) [Example 21, (4-Methylpiperazin-1-yl)-[(2S,3S,4S,5R)-3,4,5,6-tetrahydroxytetrahydropyran-2-yl]methanone] | 7.53%
2 | O=[N+]([O-])c1ccc(CCCCCCCc2cn([C@H]3C(O)O[C@H](CO)[C@@H](O)[C@@H]3O)nn2)c2nonc12 (stereo partly drawn) [Example 67, (3R,4R,5S,6R)-6-(Hydroxymethyl)-3-[4-[7-(4-nitro-2,1,3-benzoxadiazol-7-yl)heptyl]triazol-1-yl]tetrahydropyran-2,4,5-triol] | 25.8%
3 | Cc1ccc(-c2nc(C)c(-c3cn([C@H]4C(O)O[C@H](CO)[C@@H](O)[C@@H]4O)nn3)c(Cl)n2)cc1 (stereo partly drawn) [Example 61, (3R,4R,5S,6R)-3-[4-[4-Chloro-6-methyl-2-(p-tolyl)pyrimidin-5-yl]triazol-1-yl]-6-(hydroxymethyl)tetrahydropyran-2,4,5-triol] | 9.42%
4 | OC[C@H]1OC(O)[C@H](n2cc(CCCCl)nn2)[C@@H](O)[C@@H]1O (stereo partly drawn) [Example 66, (3R,4R,5S,6R)-3-[4-(3-Chloropropyl)triazol-1-yl]-6-(hydroxymethyl)tetrahydropyran-2,4,5-triol] | 5.12%
5 | CC(=O)O[C@@H]1OC(CN2CCN(c3ccc(Cl)cc3)CC2)=C[C@H](OC(C)=O)[C@H]1OC(C)=O [Example 48, [(2S,3R,4S)-2,3-Diacetoxy-6-[[4-(4-chlorophenyl)piperazin-1-yl]methyl]-3,4-dihydro-2H-pyran-4-yl] acetate] | 28.8%
6 | O=[N+]([O-])c1ccc(NCc2cn(C[C@H]3OC(O)[C@H](O)[C@@H](O)[C@@H]3O)nn2)c2nonc12 (stereo partly drawn) [Example 75, (3R,4S,5S,6R)-6-[[4-[[(4-Nitro-2,1,3-benzoxadiazol-7-yl)amino]methyl]triazol-1-yl]methyl]tetrahydropyran-2,3,4,5-tetrol] | 31.2%
7 | CC(=O)O[C@@H]1O[C@H](C(=O)N2CCN(C(C)C)CC2)[C@@H](OC(C)=O)[C@H](OC(C)=O)[C@H]1OC(C)=O [Example 6, [(2S,3R,4S,5S,6S)-2,3,5-Triacetoxy-6-(4-isopropylpiperazine-1-carbonyl)tetrahydropyran-4-yl] acetate] | 7.75%
8 | Cc1ccc(-c2cn([C@H]3C(O)O[C@H](CO)[C@@H](O)[C@@H]3O)nn2)cc1 (stereo partly drawn) [Example 56, (3R,4R,5S,6R)-6-(Hydroxymethyl)-3-[4-(p-tolyl)triazol-1-yl]tetrahydropyran-2,4,5-triol] | 21.1%
9 | CC(=O)O[C@@H]1OC(CN2CCN(c3ccccc3Cl)CC2)=C[C@H](OC(C)=O)[C@H]1OC(C)=O [Example 49, [(2S,3R,4S)-2,3-Diacetoxy-6-[[4-(2-chlorophenyl)piperazin-1-yl]methyl]-3,4-dihydro-2H-pyran-4-yl] acetate] | 19.9%
10 | CC(=O)O[C@@H]1OC(CN2CCN(Cc3ccc4c(c3)OCO4)CC2)=C[C@H](OC(C)=O)[C@H]1OC(C)=O [Example 47, [(2S,3R,4S)-2,3-Diacetoxy-6-[[4-(1,3-benzodioxol-5-ylmethyl)piperazin-1-yl]methyl]-3,4-dihydro-2H-pyran-4-yl] acetate] | 13.8%
11 | OC[C@H]1OC(O)[C@H](n2cc(CCCc3ccccc3)nn2)[C@@H](O)[C@@H]1O (stereo partly drawn) [Example 57, (3R,4R,5S,6R)-6-(Hydroxymethyl)-3-[4-(3-phenylpropyl)triazol-1-yl]tetrahydropyran-2,4,5-triol] | 24.1%
12 | CC(C)(C)N1CCN(C(=O)[C@H]2OC(O)[C@H](O)[C@@H](O)[C@@H]2O)CC1 (stereo partly drawn) [Example 27, (4-tert-Butylpiperazin-1-yl)-[(2S,3S,4S,5R)-3,4,5,6-tetrahydroxytetrahydropyran-2-yl]methanone] | 13.1%
13 | OC1O[C@H](Cn2cc(-c3ccccc3)nn2)[C@@H](O)[C@H](O)[C@H]1O (stereo partly drawn) [Example 69, (3R,4S,5S,6R)-6-[(4-Phenyltriazol-1-yl)methyl]tetrahydropyran-2,3,4,5-tetrol] | 6.14%
14 | COc1cccc(N2CCN(C(=O)[C@H]3OC(O)[C@H](O)[C@@H](O)[C@@H]3O)CC2)c1 (stereo partly drawn) [Example 38, [4-(3-Methoxyphenyl)piperazin-1-yl]-[(2S,3S,4S,5R)-3,4,5,6-tetrahydroxytetrahydropyran-2-yl]methanone] | 12.7%
15 | OC[C@H]1OC(O)[C@H](n2cc(CC3CCCCC3)nn2)[C@@H](O)[C@@H]1O (stereo partly drawn) [Example 64, (3R,4R,5S,6R)-3-[4-(Cyclohexylmethyl)triazol-1-yl]-6-(hydroxymethyl)tetrahydropyran-2,4,5-triol] | 8.86%
16 | O=C([C@H]1OC(O)[C@H](O)[C@@H](O)[C@@H]1O)N1CCN(c2ccc(Br)cc2)CC1 (stereo partly drawn) [Example 36, [4-(4-Bromophenyl)piperazin-1-yl]-[(2S,3S,4S,5R)-3,4,5,6-tetrahydroxytetrahydropyran-2-yl]methanone] | 20.6%
17 | COc1ccc(N2CCN(CC3=C[C@H](OC(C)=O)[C@@H](OC(C)=O)[C@H](OC(C)=O)O3)CC2)cc1 [Example 50, [(2S,3R,4S)-2,3-Diacetoxy-6-[[4-(4-methoxyphenyl)piperazin-1-yl]methyl]-3,4-dihydro-2H-pyran-4-yl] acetate] | 13.8%
